The text below walks through data of patent US5631248A, “Supersaturated topical compositions” (priority 1992, dated 1997).

The data set is described as follows: Saturated concentration of hydrocortisone acetate in propylene glycol. Type of data set: physicochemical. The following applies: saturated solution in propylene glycol (Sample A).

On to `CC(=O)OCC(=O)[C@@]1(O)CC[C@H]2[C@@H]3CCC4=CC(=O)CC[C@]4(C)[C@H]3[C@@H](O)C[C@@]21C` [hydrocortisone acetate], for which the “concentration of saturated solution in propylene glycol” value is 0.10 % w/w.
